Test [1] has as its target T1, c-Met (Homo sapiens, UniProt P08581).
T1 construct: purchased Invitrogen
The test can be described thus: c-Met kinase assay (Invitrogen Z′-LYTE kinase assay platform). Particulars: Z′-LYTE kinase assay at Invitrogen, ATP concentration of 100 μM. The test is classed as biochemical. As to the method:
(§1) The activities of exemplary compounds of the present invention against Ron and c-Met determined at Invitrogen using the Z′-LYTE™ kinase assay platform are shown in Table 1: A, IC50≦0.1 μM; B, 0.1 μM<IC50≦1 μM; C, 1 μM<IC50≦10 μM; D, IC50>10 μM. The assays were conducted at an ATP concentration of 100 μM. The Example # of Table 1 corresponds to the compound example number as illustrated in the Examples section.

The target of test [2] is T2, Ron (Homo sapiens, UniProt Q04912).
T2 construct: purchased Invitrogen
The test can be described thus: Ron kinase assay (Invitrogen Z′-LYTE kinase assay platform). The test is classed as biochemical. Particulars: Z′-LYTE kinase assay at Invitrogen, ATP concentration of 100 μM. The protocol: as §1

In test [3] the test system is MKN45 cells. The test can be described thus: MKN45 cell proliferation assay (CellTiter-Glo). The following applies: Homo sapiens, MKN-45, 72 h, MKN45 cell line, 3 days incubation, at least duplicate experiments, read-out: Prolif. IC50. The test is classed as cell-based. A digest of the protocol: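 MKN45 cells (5000/well, RPMI + 10% FCS) plated overnight, then exposed to 8-point dilution series, typically 10 μM to 0.6 nM, in 0.1% DMSO for 3 days at 37 °C. CellTiter-Glo luminescence as % of DMSO control; IC50 from four-parameter fit, at least duplicate experiments.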
(Cellular ATP, detected with luciferase, serves as a proxy for viable cell number.)

Test [4] deals with T3, phosphorylated c-MET (Homo sapiens, UniProt P08581).
T3 construct: endogenous in cells; host or cells: MKN45
The test can be described thus: c-MET cell mechanistic assay (phosphorylated c-MET in MKN45 cells). The following applies: MKN45 cell line, four hours incubation, phosphorylated c-MET levels, at least duplicate experiments; read-out: Met mech IC50. The test is classed as cell-based. An outline of the steps: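 MKN45 cells were treated 4 h at 37 °C with a 6-point dilution series (typically 10 μM to 3 nM; final 0.5% DMSO). Phospho-c-MET (pY1230/1234/1235) in lysates was measured by capture ELISA with HRP read-out at 450 nm. IC50 came from a four-parameter fit of percent of DMSO control.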

pIC50: −log10 of the molar value.

T3 sequence (P08581 25-1390): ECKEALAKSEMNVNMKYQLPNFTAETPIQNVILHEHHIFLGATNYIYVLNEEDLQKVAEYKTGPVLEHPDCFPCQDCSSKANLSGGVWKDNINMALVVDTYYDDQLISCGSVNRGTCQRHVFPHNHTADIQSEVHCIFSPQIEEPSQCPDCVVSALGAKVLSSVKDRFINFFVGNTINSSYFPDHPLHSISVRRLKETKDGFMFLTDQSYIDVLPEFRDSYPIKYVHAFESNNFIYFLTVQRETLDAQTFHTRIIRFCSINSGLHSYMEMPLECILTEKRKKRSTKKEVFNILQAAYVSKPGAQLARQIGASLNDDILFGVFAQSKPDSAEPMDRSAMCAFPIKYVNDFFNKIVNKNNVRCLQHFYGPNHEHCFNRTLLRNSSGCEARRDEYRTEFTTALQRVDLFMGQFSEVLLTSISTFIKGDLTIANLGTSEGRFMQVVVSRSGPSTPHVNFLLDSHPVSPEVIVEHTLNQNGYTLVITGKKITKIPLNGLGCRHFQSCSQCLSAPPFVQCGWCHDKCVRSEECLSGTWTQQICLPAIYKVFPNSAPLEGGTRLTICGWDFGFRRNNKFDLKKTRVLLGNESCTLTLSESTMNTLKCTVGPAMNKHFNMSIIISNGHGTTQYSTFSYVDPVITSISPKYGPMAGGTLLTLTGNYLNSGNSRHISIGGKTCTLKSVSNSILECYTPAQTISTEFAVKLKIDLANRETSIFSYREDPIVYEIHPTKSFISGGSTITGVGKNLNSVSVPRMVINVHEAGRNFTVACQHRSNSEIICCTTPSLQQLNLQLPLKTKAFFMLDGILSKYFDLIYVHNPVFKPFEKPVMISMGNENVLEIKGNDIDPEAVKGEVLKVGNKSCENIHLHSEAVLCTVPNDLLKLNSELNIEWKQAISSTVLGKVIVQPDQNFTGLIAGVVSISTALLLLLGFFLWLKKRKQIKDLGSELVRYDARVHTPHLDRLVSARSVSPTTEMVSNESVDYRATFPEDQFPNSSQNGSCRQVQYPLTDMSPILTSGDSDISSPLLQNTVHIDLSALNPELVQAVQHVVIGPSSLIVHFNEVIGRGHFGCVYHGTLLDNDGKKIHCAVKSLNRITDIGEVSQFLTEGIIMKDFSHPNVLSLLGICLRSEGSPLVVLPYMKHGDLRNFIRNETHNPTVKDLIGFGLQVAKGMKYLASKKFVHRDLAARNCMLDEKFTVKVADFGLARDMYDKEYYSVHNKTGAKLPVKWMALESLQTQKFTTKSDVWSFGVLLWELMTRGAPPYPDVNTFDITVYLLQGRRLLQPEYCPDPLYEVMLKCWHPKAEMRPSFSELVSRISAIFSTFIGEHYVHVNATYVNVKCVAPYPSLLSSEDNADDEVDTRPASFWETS
T1 sequence (P08581 25-1390): as above
T2 sequence (Q04912 25-1400): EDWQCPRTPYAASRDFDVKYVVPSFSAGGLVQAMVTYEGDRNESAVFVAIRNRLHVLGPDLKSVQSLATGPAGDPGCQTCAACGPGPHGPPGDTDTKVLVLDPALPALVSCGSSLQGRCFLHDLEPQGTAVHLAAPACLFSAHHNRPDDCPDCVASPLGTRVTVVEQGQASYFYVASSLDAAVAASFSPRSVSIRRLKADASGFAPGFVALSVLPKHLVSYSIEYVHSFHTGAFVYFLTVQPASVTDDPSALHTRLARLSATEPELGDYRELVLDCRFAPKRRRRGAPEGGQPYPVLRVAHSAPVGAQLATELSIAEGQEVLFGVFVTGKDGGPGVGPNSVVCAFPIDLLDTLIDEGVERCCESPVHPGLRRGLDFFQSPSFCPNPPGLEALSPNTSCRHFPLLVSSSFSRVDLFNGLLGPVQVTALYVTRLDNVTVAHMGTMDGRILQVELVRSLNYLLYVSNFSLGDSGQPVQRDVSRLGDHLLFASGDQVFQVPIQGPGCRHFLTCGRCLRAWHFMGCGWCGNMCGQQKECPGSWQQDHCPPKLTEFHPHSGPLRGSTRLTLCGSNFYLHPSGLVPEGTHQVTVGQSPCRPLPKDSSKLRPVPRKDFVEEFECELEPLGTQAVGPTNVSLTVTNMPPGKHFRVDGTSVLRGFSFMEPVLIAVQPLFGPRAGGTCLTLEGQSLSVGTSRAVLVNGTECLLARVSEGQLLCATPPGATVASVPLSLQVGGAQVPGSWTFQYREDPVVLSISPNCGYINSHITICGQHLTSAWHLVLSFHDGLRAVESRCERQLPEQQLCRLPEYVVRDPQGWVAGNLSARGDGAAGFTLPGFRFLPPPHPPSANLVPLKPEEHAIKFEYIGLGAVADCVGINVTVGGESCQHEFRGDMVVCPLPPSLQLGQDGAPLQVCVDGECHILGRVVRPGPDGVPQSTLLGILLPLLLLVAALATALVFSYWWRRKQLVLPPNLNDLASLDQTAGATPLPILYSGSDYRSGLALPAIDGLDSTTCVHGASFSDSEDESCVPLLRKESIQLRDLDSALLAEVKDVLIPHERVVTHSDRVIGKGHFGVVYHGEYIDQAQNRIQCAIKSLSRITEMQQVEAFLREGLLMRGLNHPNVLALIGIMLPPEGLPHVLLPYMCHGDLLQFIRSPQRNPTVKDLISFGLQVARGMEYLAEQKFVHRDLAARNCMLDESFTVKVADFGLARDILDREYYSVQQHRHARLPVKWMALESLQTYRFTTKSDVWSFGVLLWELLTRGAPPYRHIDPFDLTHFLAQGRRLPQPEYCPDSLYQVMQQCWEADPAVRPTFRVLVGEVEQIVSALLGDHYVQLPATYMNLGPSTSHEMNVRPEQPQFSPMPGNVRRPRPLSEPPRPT

Consider `C[C@H](c1c(Cl)ccc(F)c1Cl)c1c[nH]c2ncc(-c3cnn(CCO)c3)cc12` [Example 70, 2-(4-{3-[(S)-1-(2,6-Dichloro-3-fluorophenyl)ethyl]-1H-pyrrolo[2,3-b]-pyridin-5-yl}pyrazol-1-yl)ethanol], for which the negative logarithm of the IC50 (pIC50) (commonly −log10 of the IC50, conventionally taken in molar units) in test [1] is not below 7.00; in test [2], 5.00 to 6.00; in test [3] it was not below 7.00; in test [4] it was not below 7.00.

For the origin of these results see patent US8592448B2 (OSI Pharmaceuticals, LLC, priority 2008, dated 2013).
